{"source": "patent US8133998B2", "about": "“Bicyclic pyrimidine derivatives as calcium channel blockers” (Zalicus Pharmaceuticals, Ltd., priority 2007, dated 2012)"}
{"target": "T1, human α1H T-type channels (Homo sapiens, UniProt O95180)", "T1 construct": "expressed in transfected cells; host or cells: HEK 293", "T1 sequence (O95180 whole entry)": "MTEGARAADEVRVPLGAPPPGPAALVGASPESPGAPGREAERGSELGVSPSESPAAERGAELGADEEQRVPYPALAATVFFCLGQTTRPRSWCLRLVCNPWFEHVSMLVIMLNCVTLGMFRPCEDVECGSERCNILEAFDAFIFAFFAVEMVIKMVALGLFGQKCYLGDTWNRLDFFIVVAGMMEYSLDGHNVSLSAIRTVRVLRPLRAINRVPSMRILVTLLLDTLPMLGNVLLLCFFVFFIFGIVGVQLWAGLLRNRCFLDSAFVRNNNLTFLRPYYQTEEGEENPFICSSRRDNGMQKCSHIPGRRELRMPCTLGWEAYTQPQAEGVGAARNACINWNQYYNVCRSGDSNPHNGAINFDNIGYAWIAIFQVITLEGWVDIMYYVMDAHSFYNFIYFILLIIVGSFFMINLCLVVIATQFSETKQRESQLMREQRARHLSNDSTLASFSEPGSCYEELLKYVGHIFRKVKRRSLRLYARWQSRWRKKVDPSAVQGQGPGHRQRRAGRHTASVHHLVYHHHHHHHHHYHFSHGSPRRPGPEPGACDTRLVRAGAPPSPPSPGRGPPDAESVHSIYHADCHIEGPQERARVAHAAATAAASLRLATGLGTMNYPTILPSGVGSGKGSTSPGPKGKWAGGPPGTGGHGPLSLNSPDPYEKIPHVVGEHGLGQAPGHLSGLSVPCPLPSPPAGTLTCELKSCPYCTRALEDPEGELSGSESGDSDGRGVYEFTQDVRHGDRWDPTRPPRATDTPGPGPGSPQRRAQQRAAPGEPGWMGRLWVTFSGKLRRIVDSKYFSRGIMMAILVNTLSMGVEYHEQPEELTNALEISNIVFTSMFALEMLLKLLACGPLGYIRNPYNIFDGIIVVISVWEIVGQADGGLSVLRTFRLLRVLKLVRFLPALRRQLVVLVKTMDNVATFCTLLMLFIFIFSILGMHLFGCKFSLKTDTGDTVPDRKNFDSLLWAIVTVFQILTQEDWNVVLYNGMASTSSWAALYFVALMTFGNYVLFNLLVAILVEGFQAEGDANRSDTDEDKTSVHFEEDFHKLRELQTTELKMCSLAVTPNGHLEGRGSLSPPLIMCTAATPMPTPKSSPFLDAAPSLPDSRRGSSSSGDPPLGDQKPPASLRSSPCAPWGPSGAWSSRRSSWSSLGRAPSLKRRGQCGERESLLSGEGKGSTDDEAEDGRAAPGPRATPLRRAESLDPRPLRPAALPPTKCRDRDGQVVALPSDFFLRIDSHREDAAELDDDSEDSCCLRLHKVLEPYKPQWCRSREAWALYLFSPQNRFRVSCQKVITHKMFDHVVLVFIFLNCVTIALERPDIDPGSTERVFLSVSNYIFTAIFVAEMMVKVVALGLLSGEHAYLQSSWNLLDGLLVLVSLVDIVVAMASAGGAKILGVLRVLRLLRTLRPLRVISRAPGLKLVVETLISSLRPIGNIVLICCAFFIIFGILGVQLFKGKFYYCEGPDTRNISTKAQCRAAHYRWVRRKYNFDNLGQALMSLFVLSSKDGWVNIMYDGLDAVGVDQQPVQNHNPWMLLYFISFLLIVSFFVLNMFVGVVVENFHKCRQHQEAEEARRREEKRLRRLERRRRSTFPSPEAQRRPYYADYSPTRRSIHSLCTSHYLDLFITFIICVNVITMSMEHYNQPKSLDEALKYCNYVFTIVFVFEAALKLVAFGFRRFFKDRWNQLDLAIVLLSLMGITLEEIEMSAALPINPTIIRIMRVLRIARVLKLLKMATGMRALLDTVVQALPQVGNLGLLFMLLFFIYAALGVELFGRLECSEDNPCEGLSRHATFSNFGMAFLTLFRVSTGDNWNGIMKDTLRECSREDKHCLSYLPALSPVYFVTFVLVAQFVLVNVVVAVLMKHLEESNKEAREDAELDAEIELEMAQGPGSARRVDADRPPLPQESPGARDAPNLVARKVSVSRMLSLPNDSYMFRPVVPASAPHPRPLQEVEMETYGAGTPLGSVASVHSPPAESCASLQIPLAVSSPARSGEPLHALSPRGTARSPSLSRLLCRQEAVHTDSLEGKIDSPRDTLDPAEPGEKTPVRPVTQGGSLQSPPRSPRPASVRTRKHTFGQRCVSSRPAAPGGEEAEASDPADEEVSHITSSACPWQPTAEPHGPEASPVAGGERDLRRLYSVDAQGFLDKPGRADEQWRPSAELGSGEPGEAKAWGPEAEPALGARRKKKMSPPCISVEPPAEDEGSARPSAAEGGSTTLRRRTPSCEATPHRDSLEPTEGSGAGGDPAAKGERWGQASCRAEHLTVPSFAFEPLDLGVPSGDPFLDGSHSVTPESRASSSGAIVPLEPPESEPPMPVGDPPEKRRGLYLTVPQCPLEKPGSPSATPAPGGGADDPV", "experiment": "T-type calcium channel block, whole cell patch clamp in HEK cells", "assay_type": "cell-based", "details": "HEK cells stably expressing human α1H; measured at 1 μM drug; mainly non-inactivated protocol", "description": "(§1) T-type calcium channel blocking activity was assayed in human embryonic kidney cells, HEK 293, stably transfected with the T-type calcium channel subunits. Briefly, cells were cultured in Dulbecco's modified eagle medium (DMEM) supplemented with 10% fetal bovine serum, 200 U/ml penicillin and 0.2 mg/ml streptomycin at 37° C. with 5% CO2. At 85% confluency cells were split with 0.25% trypsin/1 mM EDTA and plated at 10% confluency on glass coverslips. At 12 hours the medium was replaced and the cells stably transfected using a standard calcium phosphate protocol and the appropriate calcium channel cDNA's. Fresh DMEM was supplied and the cells transferred to 28° C./5% CO2. Cells were incubated for 1 to 2 days prior to whole cell recording.\n(§2) Standard patch-clamp techniques were employed to identify blockers of T-type currents. Briefly, previously described HEK cell lines stably expressing human α1G, α1H and α1I T-type channels were used for all the recordings (passage #: 4-20, 37° C., 5% CO2). Whole cell patch clamp experiments were performed using an Axopatch 200B amplifier (Axon Instruments, Burlingame, Calif.) linked to a personal computer equipped with pCLAMP software. Data were analyzed using Clampfit (Axon Instruments) and SigmaPlot 4.0 (Jandel Scientific). To obtain T-type currents, plastic dishes containing semi-confluent cells were positioned on the stage of a ZEISS AXIOVERT S100 microscope after replacing the culture medium with external solution (see below). Whole-cell patches were obtained using pipettes (borosilicate glass with filament, O.D.: 1.5 mm, I.D.: 0.86 mm, 10 cm length), fabricated on a SUTTER P-97 puller with resistance values of ˜5 MΩ (see below for internal solution).\n(§3) In the non-inactivating protocol, the holding potential is set at −110 mV and with a pre-pulse at −100 mV for 1 second prior to the test pulse at −40 mV for 50 ms. In the inactivation protocol, the pre-pulse is at approximately −85 mV for 1 second, which inactivates about 15% of the T-type channels.\n(§4) Test compounds were dissolved in external solution, 0.1-0.01% DMSO. After ˜10 min rest, they were applied by gravity close to the cell using a WPI microfil tubing. The “non-inactivated” pre-pulse was used to examine the resting block of a compound. The “inactivated” protocol was employed to study voltage-dependent block. However, the initial data shown below were mainly obtained using the non-inactivated protocol only. Kd values are shown for various compounds of the invention in Table 4 measured at 1 μM for the drug of interest except for compound 18 which was measured at 200 nM.", "units": {"Kd": "nM"}}
{"smiles": "CCN(CC)C(=O)Cn1cnc2sc(C(=O)N3CCN(c4cccc(Cl)c4)CC3)c(C)c2c1=O", "note": "[Compound 1, 2-(6-(4-(3-chlorophenyl)piperazine-1-carbonyl)-5-methyl-4-oxothieno[2,3-d]pyrimidin-3(4H)-yl)-N,N-diethylacetamide]", "Kd": 890}
{"smiles": "CCN(CC)C(=O)Cn1cnc2sc(C(=O)N3CCN(c4ccc(Cl)cc4)CC3)c(C)c2c1=O", "note": "[Compound 5, 2-(6-(4-(4-chlorophenyl)piperazine-1-carbonyl)-5-methyl-4-oxothieno[2,3-d]pyrimidin-3(4H)-yl)-N,N-diethylacetamide]", "Kd": 620}
{"smiles": "CCN(CC)C(=O)Cn1cnc2sc(C(=O)N3CCN(c4cccc(F)c4)CC3)c(C)c2c1=O", "note": "[Compound 7, N,N-diethyl-2-(6-(4-(3-fluorophenyl)piperazine-1-carbonyl)-5-methyl-4-oxothieno[2,3-d]pyrimidin-3(4H)-yl)acetamide]", "Kd": 1140}
{"smiles": "Cc1c(C(=O)N2CCN(c3ccccc3)CC2)sc2ncn(CC(=O)NC(C)(C)C)c(=O)c12", "note": "[Compound 13, N-tert-butyl-2-(5-methyl-4-oxo-6-(4-phenylpiperazine-1-carbonyl)thieno[2,3-d]pyrimidin-3(4H)-yl)acetamide]", "Kd": 2140}
{"smiles": "Cc1c(C(=O)N2CCN(c3cccc([N+](=O)[O-])c3)CC2)sc2ncn(CC(=O)NC3CCCCC3)c(=O)c12", "note": "[Compound 29, N-cyclohexyl-2-(5-methyl-6-(4-(3-nitrophenyl)piperazine-1-carbonyl)-4-oxothieno[2,3-d]pyrimidin-3(4H)-yl)acetamide]", "Kd": 950}
{"smiles": "Cc1c(C(=O)N2CCN(c3ccccc3F)CC2)sc2ncn(C(C)C(=O)NC3CCCCC3)c(=O)c12", "note": "(stereo not shown) [Compound 34, N-cyclohexyl-2-(6-(4-(2-fluorophenyl)piperazine-1-carbonyl)-5-methyl-4-oxothieno[2,3-d]pyrimidin-3(4H)-yl)propanamide]", "Kd": 440}
{"smiles": "Cc1c(C(=O)N2CCN(c3ccccc3)CC2)sc2ncn(CC(=O)NC3CCCC3)c(=O)c12", "note": "[Compound 41, N-cyclopentyl-2-(5-methyl-4-oxo-6-(4-phenylpiperazine-1-carbonyl)thieno[2,3-d]pyrimidin-3(4H)-yl)acetamide]", "Kd": 830}
{"smiles": "Cc1c(C(=O)N2CCN(c3ccccc3)CC2)sc2ncn(C(C)C(=O)NC3CCCC3)c(=O)c12", "note": "(stereo not shown) [Compound 46, N-cyclopentyl-2-(5-methyl-4-oxo-6-(4-phenylpiperazine-1-carbonyl)thieno[2,3-d]pyrimidin-3(4H)-yl)propanamide]", "Kd": 520}
{"smiles": "Cc1c(C(=O)N2CCN(c3ccccc3F)CC2)sc2ncn(C(C)C(=O)NC3CCCC3)c(=O)c12", "note": "(stereo not shown) [Compound 47, N-cyclopentyl-2-(6-(4-(2-fluorophenyl)piperazine-1-carbonyl)-5-methyl-4-oxothieno[2,3-d]pyrimidin-3(4H)-yl)propanamide]", "Kd": 560}
{"smiles": "Cc1c(C(=O)N2CCN(c3ccccc3F)CC2)sc2ncn(CC(=O)Nc3ccccc3)c(=O)c12", "note": "[Compound 51, 2-(6-(4-(2-fluorophenyl)piperazine-1-carbonyl)-5-methyl-4-oxothieno[2,3-d]pyrimidin-3(4H)-yl)-N-phenylacetamide]", "Kd": 570}
{"smiles": "Cc1c(C(=O)N2CCN(c3ccccc3F)CC2)sc2ncn(CC(=O)N3CCC(F)(F)C3)c(=O)c12", "note": "[Compound 79, 3-(2-(3,3-difluoropyrrolidin-1-yl)-2-oxoethyl)-6-(4-(2-fluorophenyl)piperazine-1-carbonyl)-5-methylthieno[2,3-d]pyrimidin-4(3H)-one]", "Kd": 4640}
{"smiles": "Cc1c(C(=O)N2CCN(c3ccc(F)cc3)CC2)sc2ncn(CC(=O)N3CCC(F)(F)C3)c(=O)c12", "note": "[Compound 90]", "Kd": 2440}
{"smiles": "Cc1c(C(=O)N2CCN(c3ccc(F)cc3)CC2)sc2ncn(CC(=O)N3CC[C@H](F)C3)c(=O)c12", "note": "[Compound 91, (S)-6-(4-(4-fluorophenyl)-piperazine-1-carbonyl)-3-(2-(3-fluoropyrrolidin-1-yl)-2-oxoethyl)-5-methylthieno[2,3-d]pyrimidin-4(3H)-one]", "Kd": 6310}
{"target": "T2, human α1G T-type channels (Homo sapiens, UniProt O43497)", "T2 construct": "expressed in transfected cells; host or cells: HEK 293", "T2 sequence (O43497 whole entry)": "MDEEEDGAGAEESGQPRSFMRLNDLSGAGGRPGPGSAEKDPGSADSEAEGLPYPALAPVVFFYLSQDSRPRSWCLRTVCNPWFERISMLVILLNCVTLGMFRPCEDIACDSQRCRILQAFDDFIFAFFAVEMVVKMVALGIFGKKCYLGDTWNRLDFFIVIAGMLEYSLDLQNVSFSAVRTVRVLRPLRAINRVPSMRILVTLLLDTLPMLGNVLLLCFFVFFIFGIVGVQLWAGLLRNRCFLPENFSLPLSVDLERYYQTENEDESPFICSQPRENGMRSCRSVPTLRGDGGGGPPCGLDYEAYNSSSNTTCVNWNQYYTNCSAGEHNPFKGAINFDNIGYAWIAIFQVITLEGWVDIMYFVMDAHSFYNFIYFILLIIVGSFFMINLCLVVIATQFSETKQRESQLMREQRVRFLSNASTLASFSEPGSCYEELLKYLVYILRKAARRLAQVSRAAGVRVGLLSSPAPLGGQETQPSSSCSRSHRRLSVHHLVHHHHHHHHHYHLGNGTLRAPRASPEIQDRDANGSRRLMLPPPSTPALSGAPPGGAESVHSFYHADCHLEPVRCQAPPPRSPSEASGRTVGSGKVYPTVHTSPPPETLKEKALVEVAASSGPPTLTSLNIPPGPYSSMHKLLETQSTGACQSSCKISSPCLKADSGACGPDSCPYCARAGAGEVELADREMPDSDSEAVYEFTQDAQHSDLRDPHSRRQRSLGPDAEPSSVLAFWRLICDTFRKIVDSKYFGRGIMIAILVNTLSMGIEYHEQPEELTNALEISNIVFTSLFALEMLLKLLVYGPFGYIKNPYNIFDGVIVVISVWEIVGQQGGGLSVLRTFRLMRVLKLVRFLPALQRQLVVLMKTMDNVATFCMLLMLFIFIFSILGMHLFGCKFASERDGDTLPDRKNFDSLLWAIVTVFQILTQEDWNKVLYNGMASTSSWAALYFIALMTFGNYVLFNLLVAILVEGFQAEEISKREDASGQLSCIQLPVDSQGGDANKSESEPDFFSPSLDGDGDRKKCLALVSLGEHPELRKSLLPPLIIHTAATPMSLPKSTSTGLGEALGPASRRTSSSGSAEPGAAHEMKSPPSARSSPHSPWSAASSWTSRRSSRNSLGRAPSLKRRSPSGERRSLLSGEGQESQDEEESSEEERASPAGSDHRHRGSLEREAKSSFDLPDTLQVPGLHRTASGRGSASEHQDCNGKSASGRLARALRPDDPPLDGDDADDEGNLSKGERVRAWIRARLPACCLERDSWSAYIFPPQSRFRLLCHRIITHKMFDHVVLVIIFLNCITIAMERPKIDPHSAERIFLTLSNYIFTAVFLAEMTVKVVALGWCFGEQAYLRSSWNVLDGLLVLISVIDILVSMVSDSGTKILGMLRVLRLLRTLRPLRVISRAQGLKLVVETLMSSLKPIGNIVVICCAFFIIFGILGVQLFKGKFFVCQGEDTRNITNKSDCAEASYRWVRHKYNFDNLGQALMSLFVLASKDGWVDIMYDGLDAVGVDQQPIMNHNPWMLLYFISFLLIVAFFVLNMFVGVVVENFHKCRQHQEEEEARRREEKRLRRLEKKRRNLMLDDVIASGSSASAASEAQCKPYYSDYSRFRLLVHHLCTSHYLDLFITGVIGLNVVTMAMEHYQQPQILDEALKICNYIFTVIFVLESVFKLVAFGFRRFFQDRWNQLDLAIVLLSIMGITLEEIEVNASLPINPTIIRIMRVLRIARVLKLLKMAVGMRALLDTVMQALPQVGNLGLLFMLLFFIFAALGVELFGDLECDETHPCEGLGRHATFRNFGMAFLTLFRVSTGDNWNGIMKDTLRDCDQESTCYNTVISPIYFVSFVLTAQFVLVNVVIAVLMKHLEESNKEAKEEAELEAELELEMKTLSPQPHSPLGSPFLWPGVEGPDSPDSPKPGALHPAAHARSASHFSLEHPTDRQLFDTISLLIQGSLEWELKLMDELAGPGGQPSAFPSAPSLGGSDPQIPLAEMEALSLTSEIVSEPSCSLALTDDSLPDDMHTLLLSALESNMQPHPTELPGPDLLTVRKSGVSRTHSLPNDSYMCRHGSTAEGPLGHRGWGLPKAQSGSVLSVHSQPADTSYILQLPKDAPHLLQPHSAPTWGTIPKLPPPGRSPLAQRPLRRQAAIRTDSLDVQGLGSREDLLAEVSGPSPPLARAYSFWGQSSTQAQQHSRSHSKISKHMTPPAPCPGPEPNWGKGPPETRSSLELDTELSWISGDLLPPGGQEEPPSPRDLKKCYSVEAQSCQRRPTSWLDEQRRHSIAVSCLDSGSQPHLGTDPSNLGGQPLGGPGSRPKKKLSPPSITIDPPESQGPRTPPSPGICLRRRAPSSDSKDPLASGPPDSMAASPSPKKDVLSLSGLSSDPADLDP", "experiment": "T-type calcium channel block, whole cell patch clamp in HEK cells", "assay_type": "cell-based", "details": "HEK cells stably expressing human α1G; measured at 1 μM drug; mainly non-inactivated protocol", "description": "as §1, §2, §3, §4", "units": {"Kd": "nM"}}
{"smiles": "CCN(CC)C(=O)Cn1cnc2sc(C(=O)N3CCN(c4cccc(Cl)c4)CC3)c(C)c2c1=O", "note": "[Compound 1, 2-(6-(4-(3-chlorophenyl)piperazine-1-carbonyl)-5-methyl-4-oxothieno[2,3-d]pyrimidin-3(4H)-yl)-N,N-diethylacetamide]", "Kd": 2440}
{"smiles": "CCN(CC)C(=O)Cn1cnc2sc(C(=O)N3CCN(c4ccccc4Cl)CC3)c(C)c2c1=O", "note": "[Compound 4, 2-(6-(4-(2-chlorophenyl)piperazine-1-carbonyl)-5-methyl-4-oxothieno[2,3-d]pyrimidin-3(4H)-yl)-N,N-diethylacetamide]", "Kd": 4120}
{"smiles": "CCN(CC)C(=O)Cn1cnc2sc(C(=O)N3CCN(c4ccc(Cl)cc4)CC3)c(C)c2c1=O", "note": "[Compound 5, 2-(6-(4-(4-chlorophenyl)piperazine-1-carbonyl)-5-methyl-4-oxothieno[2,3-d]pyrimidin-3(4H)-yl)-N,N-diethylacetamide]", "Kd": 1230}
{"smiles": "CCN(CC)C(=O)Cn1cnc2sc(C(=O)N3CCN(c4ccccc4C(F)(F)F)CC3)c(C)c2c1=O", "note": "[Compound 9, N,N-diethyl-2-(5-methyl-4-oxo-6-(4-(2-(trifluoromethyl)phenyl)piperazine-1-carbonyl)thieno[2,3-d]pyrimidin-3(4H)-yl)acetamide]", "Kd": 3730}
{"smiles": "Cc1c(C(=O)N2CCC(C(F)(F)F)CC2)sc2ncn(CC(=O)Nc3cccc(C(F)(F)F)c3)c(=O)c12", "note": "[Compound 63]", "Kd": 1840}
{"smiles": "Cc1c(C(N)=O)sc2ncn(CC(=O)Nc3cc(C(F)(F)F)cc(C(F)(F)F)c3)c(=O)c12", "note": "[Compound 67, 3-(2-(3,5-bis(trifluoromethyl)phenylamino)-2-oxoethyl)-5-methyl-4-oxo-3,4-dihydrothieno[2,3-d]pyrimidine-6-carboxamide]", "Kd": 2800}
{"smiles": "Cc1c(C(=O)NC(C)(C)C)sc2ncn(CC(=O)Nc3cc(C(F)(F)F)cc(C(F)(F)F)c3)c(=O)c12", "note": "[Compound 68, 3-(2-(3,5-bis(trifluoromethyl)phenylamino)-2-oxoethyl)-N-tert-butyl-5-methyl-4-oxo-3,4-dihydrothieno[2,3-d]pyrimidine-6-carboxamide]", "Kd": 400}
{"smiles": "Cc1c(C(=O)N2CCCC2)sc2ncn(CC(=O)Nc3cc(C(F)(F)F)cc(C(F)(F)F)c3)c(=O)c12", "note": "[Compound 70, N-(3,5-bis(trifluoromethyl)phenyl)-2-(5-methyl-4-oxo-6-(pyrrolidine-1-carbonyl)thieno[2,3-d]pyrimidin-3(4H)-yl)acetamide]", "Kd": 5310}
{"smiles": "Cc1c(C(=O)N2CC[C@H](F)C2)sc2ncn(CC(=O)Nc3cc(C(F)(F)F)cc(C(F)(F)F)c3)c(=O)c12", "note": "[Compound 71, (S)-N-(3,5-bis(trifluoromethyl)phenyl)-2-(5-methyl-4-oxo-6-(3-fluoropyrrolidine-1-carbonyl)thieno[2,3-d]pyrimidin-3(4H)-yl)acetamide]", "Kd": "> 74300"}
{"smiles": "Cc1c(C(=O)N2CCN(c3cc(C(F)(F)F)cc(C(F)(F)F)c3)CC2)sc2ncn(CCN3CCCC3=O)c(=O)c12", "note": "[Compound 93, 6-(4-(3,5-bis(trifluoromethyl)phenyl)piperazine-1-carbonyl)-5-methyl-3-(2-(2-oxopyrrolidin-1-yl)ethyl)thieno[2,3-d]pyrimidin-4(3H)-one]", "Kd": 2700}
{"smiles": "Cc1c(C(=O)N2CCN(c3ccc(Cl)cc3)CC2)sc2ncn(CCN3CCCC3=O)c(=O)c12", "note": "[Compound 94, 6-(4-(4-chlorophenyl)piperazine-1-carbonyl)-5-methyl-3-(2-(2-oxopyrrolidin-1-yl)ethyl)thieno[2,3-d]pyrimidin-4(3H)-one]", "Kd": 20300}
{"smiles": "Cc1c(C(=O)N2CCN(c3ccccc3F)CC2)sc2ncn(CCN3CCCC3=O)c(=O)c12", "note": "[Compound 95, 6-(4-(2-fluorophenyl)piperazine-1-carbonyl)-5-methyl-3-(2-(2-oxopyrrolidin-1-yl)ethyl)thieno[2,3-d]pyrimidin-4(3H)-one]", "Kd": 2660}
{"smiles": "O=C(Cn1cnc2ccc(C(=O)N3CCN(c4cccc(Cl)c4)CC3)cc2c1=O)N1CCCC1", "note": "[Compound 115, 6-(4-(3-chlorophenyl)piperazine-1-carbonyl)-3-(2-oxo-2-(pyrrolidin-1-yl)ethyl) quinazolin-4(3H)-one]", "Kd": 4280}
{"smiles": "CCN(CC(F)(F)F)C(=O)Cn1cnc2sc(C(=O)N3CCN(c4ccccc4F)CC3)c(C)c2c1=O", "note": "[Compound 128, N-ethyl-2-(6-(4-(2-fluoro-phenyl)piperazine-1-carbonyl)-5-methyl-4-oxothieno[2,3-d]pyrimidin-3(4H)-yl)-N-(2,2,2-trifluoroethyl)acetamide]", "Kd": 3600}
{"smiles": "Cc1c(C(=O)N2CCN(c3cccc(Cl)c3)CC2)sc2ncn(CC(=O)N3CCCC3)c(=O)c12", "note": "[Compound 136, 6-(4-(3-chloro-phenyl)piperazine-1-carbonyl)-5-methyl-3-(2-oxo-2-(pyrrolidin-1-yl)ethyl)thieno[2,3-d]pyrimidin-4(3H)-one]", "Kd": 1560}
